{"source": "patent US20170130196A1", "about": "“METHOD FOR CULTURING AND PATTERNING CELLS” (President and Fellows of Harvard College, priority 2015, published 2017)", "system": "GFP-expressing A549 human lung cancer cells", "assay": "Response of cells-in-string to toxins/drugs (crossed drug-laden string, confocal imaging)", "assay_type": "cell-based", "protocol": "Scale bar represents 150 μm.\nCells in string were evaluated for the effect of a toxic drug on cancer cells. Green fluorescent protein (GFP) expressing A549 human lung cancer cells were grown in cotton string in Matrigel for two days. […] Doxorubicin was selected due to its potency in cancer treatment. These two strings were then crossed and sandwiched between two layers of filter paper that were impregnated with Matrigel. This assembly was cultured for two days and the cellular patterns that were transferred to the paper were imaged. […] A second experiment included the doxorubicin-laden string (FIG. 7B)."}
{"compound": "COc1cccc2c1C(=O)c1c(O)c3c(c(O)c1C2=O)C[C@@](O)(C(=O)CO)C[C@@H]3O[C@H]1C[C@H](N)[C@H](O)[C@H](C)O1", "note": "[Doxorubicin]", "values": [{"measurement": "cell death of GFP-A549 cells where exposed to drug-laden top string", "setting": "1 μM Doxorubicin embedded in top string, cells grown in silk string for two days, top string removed following 24 h culture (FIG. 7B)", "value": "died in the area where they were exposed to the top string"}, {"measurement": "cell death of GFP-A549 cells where contacted by drug-laden top string", "setting": "1 mM Doxorubicin encapsulated in string, cells in cotton string in Matrigel, crossed, sandwiched between Matrigel-impregnated filter paper, cultured two days", "value": "died on the region where they contacted the top string containing doxorubicin"}]}
